Test results: patent publication US10654808B2, “Tyrosine kinase inhibitor and pharmaceutical composition comprising same” (GUANGDONG RAYNOVENT BIOTECH CO., LTD., priority 2015, dated 2020)

Key:
Type in all cases: biochemical
[1] = biological target: T1, VEGFR2 (Homo sapiens, UniProt P35968); assay: Z'-LYTE in vitro enzyme activity assay, VEGFR2; details: 100 μM ATP, 60 minutes, room temperature; read-out: IC50 detected by Z'-LYTE, VEGFR2
T1 construct: purchased Life technology
Experimental: (§1) The enzyme activity was measured by Z′-LYTE™ Detection Kinase Assay. The IC50 value of the compounds was used as an index to evaluate the inhibitory effect of the compounds on VEGFR2, FGFR1 and PDGFRB.
(§2) Recombinant human VEGFR2 and FGFR1 proteases were purchased from Life technology, PDGFRB Protease was purchased from Millipore.
(§3) Z-LYTE™ Kit Tyr1 and Tyr4 were purchased from Life technology. Multi-microplate reader, Envision (PerkinElmer) read board was used.
(§4) The test compounds were diluted 3 times with a concentration gradient, the final concentration was from 10 μM to 0.17 nM with a total of 11 concentrations, and each concentration had two parallel holes; the content of DMSO in the assay was 1%.
3 nM VEGFR2 protein kinase, 2 μM Tyr1 peptide, 100 μM ATP, 50 mM HEPES (pH 7.5), 10 mM MgCl2, 1 mM EGTA, 0.01% BRIJ-35. The detector plate was Black Proxiplate 384-Plus plate (PerkinElmer), the reaction was performed at room temperature for 60 minutes, and the reaction system was 10 μl.
(§5) The reaction was stopped by adding 5 μl of DV reagent B (1:128) to the kinase reaction solution and incubated at 23° C. for 60 minutes. The Envision instrument was used to read the plate.
(§6) The data was converted to phosphorylation rate and inhibition rate and the 4 parameter curve fitting (Model 205 in XLFIT5, iDBS) was used to get IC50 data of the compounds.

[2] = biological target: T2, FGFR1 (Homo sapiens, UniProt P11362); assay: Z'-LYTE in vitro enzyme activity assay, FGFR1; details: 25 μM ATP, 60 minutes, room temperature; read-out: IC50 detected by Z'-LYTE, FGFR1
T2 construct: purchased Life technology
T2 sequence (P11362 22-822): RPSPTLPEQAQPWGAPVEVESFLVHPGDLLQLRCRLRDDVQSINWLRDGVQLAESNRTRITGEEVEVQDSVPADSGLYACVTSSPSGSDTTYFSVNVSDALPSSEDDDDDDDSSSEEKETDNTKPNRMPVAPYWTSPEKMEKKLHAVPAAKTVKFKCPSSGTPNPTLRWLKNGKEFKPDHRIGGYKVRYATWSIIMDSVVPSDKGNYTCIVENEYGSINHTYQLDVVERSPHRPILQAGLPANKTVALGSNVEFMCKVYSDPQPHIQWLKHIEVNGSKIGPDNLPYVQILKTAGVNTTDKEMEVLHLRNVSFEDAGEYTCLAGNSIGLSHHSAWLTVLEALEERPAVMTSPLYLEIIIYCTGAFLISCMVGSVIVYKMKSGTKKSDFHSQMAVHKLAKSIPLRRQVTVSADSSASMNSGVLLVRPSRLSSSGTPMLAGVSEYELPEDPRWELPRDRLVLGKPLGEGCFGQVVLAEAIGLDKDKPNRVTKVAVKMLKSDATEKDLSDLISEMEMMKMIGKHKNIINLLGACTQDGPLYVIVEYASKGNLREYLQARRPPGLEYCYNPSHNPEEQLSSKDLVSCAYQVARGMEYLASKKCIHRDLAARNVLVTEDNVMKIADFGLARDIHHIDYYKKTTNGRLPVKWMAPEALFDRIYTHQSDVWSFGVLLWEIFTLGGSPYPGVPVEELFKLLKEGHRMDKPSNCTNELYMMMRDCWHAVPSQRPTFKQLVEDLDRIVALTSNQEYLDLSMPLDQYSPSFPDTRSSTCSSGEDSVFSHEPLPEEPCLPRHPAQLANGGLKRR
Experimental: as §1, §2, §3, §4
1 nM FGFR1 protein kinase, 2 μM Tyr4 peptide, 25 μM ATP, 50 mM HEPES (pH 7.5), 10 mM MgCl2, 1 mM EGTA, 0.01% BRIJ-35, 2 mM MnCl2, 1 mM DTT. The detector plate was Black Proxiplate 384-Plus plate (PerkinElmer), the reaction was performed at room temperature for 60 minutes, and the reaction system was 10 μl.
as §5, §6

[3] = biological target: T3, PDGFRB (Homo sapiens, UniProt P09619); assay: Z'-LYTE in vitro enzyme activity assay, PDGFRB; details: 100 μM ATP, 60 minutes, room temperature; read-out: IC50 detected by Z'-LYTE, PDGFRB
T3 construct: purchased Millipore
T3 sequence (P09619 33-1106): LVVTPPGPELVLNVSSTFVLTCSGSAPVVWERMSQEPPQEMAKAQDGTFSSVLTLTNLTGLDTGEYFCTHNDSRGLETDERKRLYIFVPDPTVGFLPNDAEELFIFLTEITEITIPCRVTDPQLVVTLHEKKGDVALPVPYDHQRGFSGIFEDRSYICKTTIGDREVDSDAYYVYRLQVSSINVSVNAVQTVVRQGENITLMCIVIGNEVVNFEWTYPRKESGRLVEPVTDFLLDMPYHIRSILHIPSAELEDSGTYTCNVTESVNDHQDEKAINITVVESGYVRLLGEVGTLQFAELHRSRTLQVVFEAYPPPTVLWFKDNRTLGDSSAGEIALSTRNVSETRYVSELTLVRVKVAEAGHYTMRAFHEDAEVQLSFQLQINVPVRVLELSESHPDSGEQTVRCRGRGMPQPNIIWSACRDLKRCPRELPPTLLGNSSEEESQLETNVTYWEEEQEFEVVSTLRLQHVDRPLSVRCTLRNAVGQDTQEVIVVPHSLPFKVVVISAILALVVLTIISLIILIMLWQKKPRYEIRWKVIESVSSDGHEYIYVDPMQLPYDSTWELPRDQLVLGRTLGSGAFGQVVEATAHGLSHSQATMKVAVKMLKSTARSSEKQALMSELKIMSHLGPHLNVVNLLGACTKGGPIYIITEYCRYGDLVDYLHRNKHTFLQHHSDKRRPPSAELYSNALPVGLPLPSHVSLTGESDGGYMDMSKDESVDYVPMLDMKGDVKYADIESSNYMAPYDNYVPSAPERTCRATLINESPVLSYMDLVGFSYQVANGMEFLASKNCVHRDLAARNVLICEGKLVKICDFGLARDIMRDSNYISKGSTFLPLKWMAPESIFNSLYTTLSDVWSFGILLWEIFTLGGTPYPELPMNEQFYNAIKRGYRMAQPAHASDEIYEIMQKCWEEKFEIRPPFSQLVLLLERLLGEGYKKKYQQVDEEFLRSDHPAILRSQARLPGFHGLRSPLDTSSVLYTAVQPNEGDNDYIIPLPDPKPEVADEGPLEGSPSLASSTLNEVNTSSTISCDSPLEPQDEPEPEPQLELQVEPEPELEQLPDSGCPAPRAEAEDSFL
Experimental: as §1, §2, §3, §4
40 nM PDGFRB protein kinase, 2 μM Tyr4 peptide, 100 μM ATP, 50 mM HEPES (pH 7.5), 10 mM MgCl2, 1 mM EGTA, 0.01% BRIJ-35, 2 mM MnCl2, 1 mM DTT. The detector plate was Black Proxiplate 384-Plus plate (PerkinElmer), the reaction was performed at room temperature for 60 minutes, and the reaction system was 10 μl.
as §5, §6

T1 sequence (P35968 20-1356): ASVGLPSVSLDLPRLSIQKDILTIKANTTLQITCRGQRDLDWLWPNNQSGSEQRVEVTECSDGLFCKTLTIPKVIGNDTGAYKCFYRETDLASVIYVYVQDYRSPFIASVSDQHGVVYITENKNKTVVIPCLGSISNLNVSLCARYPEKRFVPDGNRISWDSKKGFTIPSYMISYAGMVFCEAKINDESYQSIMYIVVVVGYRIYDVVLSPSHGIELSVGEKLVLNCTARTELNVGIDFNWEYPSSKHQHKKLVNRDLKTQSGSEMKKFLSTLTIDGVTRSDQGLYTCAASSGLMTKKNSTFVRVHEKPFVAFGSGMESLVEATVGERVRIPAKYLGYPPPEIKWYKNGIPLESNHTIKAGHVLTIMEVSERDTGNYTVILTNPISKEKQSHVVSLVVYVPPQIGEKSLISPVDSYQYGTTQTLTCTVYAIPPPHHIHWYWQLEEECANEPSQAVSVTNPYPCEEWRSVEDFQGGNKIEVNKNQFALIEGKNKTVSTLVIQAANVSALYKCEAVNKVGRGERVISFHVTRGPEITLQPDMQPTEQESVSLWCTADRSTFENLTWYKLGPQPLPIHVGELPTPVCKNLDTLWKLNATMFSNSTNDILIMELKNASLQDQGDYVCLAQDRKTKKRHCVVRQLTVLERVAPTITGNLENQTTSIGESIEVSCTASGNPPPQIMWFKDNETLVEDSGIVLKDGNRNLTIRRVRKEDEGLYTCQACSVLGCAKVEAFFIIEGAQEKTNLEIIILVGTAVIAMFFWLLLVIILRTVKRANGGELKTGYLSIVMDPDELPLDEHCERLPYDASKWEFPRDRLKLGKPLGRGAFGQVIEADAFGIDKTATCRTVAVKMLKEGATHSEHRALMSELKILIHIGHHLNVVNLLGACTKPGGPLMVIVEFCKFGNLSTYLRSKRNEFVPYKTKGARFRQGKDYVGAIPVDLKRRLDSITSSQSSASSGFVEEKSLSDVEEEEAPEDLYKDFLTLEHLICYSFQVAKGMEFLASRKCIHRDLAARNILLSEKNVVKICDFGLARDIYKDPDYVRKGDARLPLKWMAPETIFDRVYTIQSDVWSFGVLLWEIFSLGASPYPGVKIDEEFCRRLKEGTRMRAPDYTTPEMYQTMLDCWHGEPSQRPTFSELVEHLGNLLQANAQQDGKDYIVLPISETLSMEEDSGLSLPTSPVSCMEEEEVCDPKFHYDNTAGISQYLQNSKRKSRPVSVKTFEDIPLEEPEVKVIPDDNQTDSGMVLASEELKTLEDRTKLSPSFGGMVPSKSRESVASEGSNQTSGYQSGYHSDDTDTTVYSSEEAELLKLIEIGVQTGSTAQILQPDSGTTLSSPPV

IC50 [1]	IC50 [2]	IC50 [3]	SMILES
50 to 200 nM	200 to 1000 nM	50 to 200 nM	COc1cc2nccc(Oc3ccc(NC(=S)N4CC(O)C4)c(Cl)c3)c2cc1C(N)=O [Example 69]
50 to 200 nM	200 to 1000 nM	50 to 200 nM	COc1cc2nccc(Oc3ccc(NC(=S)Nc4cnc(C)s4)c(Cl)c3)c2cc1C(N)=O [Example 71]
50 to 200 nM	200 to 1000 nM	50 to 200 nM	COc1cc(Oc2ccnc3cc(OC)c(C(N)=O)cc23)ccc1NC(=S)NC1CC1 [Example 72]
50 to 200 nM	200 to 1000 nM	200 to 1000 nM	COc1cc2nccc(Oc3ccc(NC(=S)N4CC[C@@H](O)C4)c(Cl)c3)c2cc1C(N)=O [Example 73]
50 to 200 nM	200 to 1000 nM	200 to 1000 nM	COc1cc2nccc(Oc3ccc(NC(=S)N4CC[C@H](O)C4)c(Cl)c3)c2cc1C(N)=O [Example 74]
200 to 1000 nM	200 to 1000 nM	200 to 1000 nM	COc1cc2nccc(Oc3ccc(NC(=S)NC4(C#N)CC4)c(Cl)c3)c2cc1C(N)=O [Example 75]
200 to 1000 nM	200 to 1000 nM	200 to 1000 nM	COc1cc2nccc(Oc3ccc(NC(=S)NC4(C(F)(F)F)CC4)c(Cl)c3)c2cc1C(N)=O [Example 76]
< 50 nM	200 to 1000 nM	50 to 200 nM	COc1cc2nccc(Oc3cc(Cl)c(NC(=S)NC4CC4)cc3F)c2cc1C(N)=O [Example 77]
50 to 200 nM	200 to 1000 nM	200 to 1000 nM	COc1cc2nccc(Oc3ccc(NC(=S)NC4CC4)c(Cl)c3)c2cc1C#N [Example 80]
200 to 1000 nM	200 to 1000 nM	50 to 200 nM	COc1cc2nccc(Oc3ccc(N4C(=O)CN(C)C4=S)c(Cl)c3)c2cc1C(N)=O [Example 81]
200 to 1000 nM	200 to 1000 nM	50 to 200 nM	COc1cc2nccc(Oc3ccc(N4CC(=O)N(C)C4=S)c(Cl)c3)c2cc1C(N)=O [Example 82]
50 to 200 nM	200 to 1000 nM	50 to 200 nM	COc1cc2nccc(Oc3cc(F)c(NC(=S)NC4CC4)c(F)c3)c2cc1C(N)=O [Example 83]
200 to 1000 nM	200 to 1000 nM	200 to 1000 nM	COc1cc2ncc(Cl)c(Oc3ccc(NC(=S)NC4CC4)c(Cl)c3)c2cc1C(N)=O [Example 84]
200 to 1000 nM	200 to 1000 nM	200 to 1000 nM	COc1cc2nccc(Oc3ccc(NC(=S)N4CC(C)(O)C4)c(Cl)c3)c2cc1C(N)=O [Example 85]
200 to 1000 nM	200 to 1000 nM	200 to 1000 nM	COc1cc2ncc(Cl)c(Oc3ccc(NC(=S)N4CCCC4)c(Cl)c3)c2cc1C(N)=O [Example 88]
200 to 1000 nM	200 to 1000 nM	200 to 1000 nM	COc1cc2ncc(Cl)c(Oc3ccc(NC(=S)N4CC(F)(F)C4)c(Cl)c3)c2cc1C(N)=O [Example 89]
200 to 1000 nM	50 to 200 nM	200 to 1000 nM	COc1cc2nccc(Oc3cc(F)c(NC(=S)N4CC(F)(F)C4)c(F)c3)c2cc1C(N)=O [Example 90]

The remaining lines, values behind:

SMILES	IC50 [1]	IC50 [2]	IC50 [3]
COc1cc2nccc(Oc3ccc(NC(=S)NC4CC4)c(C(F)(F)F)c3)c2cc1C(N)=O [Example 41]	< 50 nM	200 to 1000 nM	200 to 1000 nM
COc1cc2nccc(Oc3ccc(NC(=S)NC4CC4)cc3C(F)(F)F)c2cc1C(N)=O [Example 42]	200 to 1000 nM	200 to 1000 nM	200 to 1000 nM
COc1cc2nccc(Oc3ccc(NC(=S)NC4CC4)nc3)c2cc1C(N)=O [Example 43]	200 to 1000 nM	200 to 1000 nM	< 50 nM
O=C1NCOc2cc3nccc(Oc4ccc(NC(=S)NC5CC5)c(Cl)c4)c3cc21 [Example 45]	200 to 1000 nM	200 to 1000 nM	200 to 1000 nM
COc1cc2nccc(Oc3ccc(NC(=S)NC4CC4)c(Cl)c3)c2cc1C(=O)N(C)C [Example 47]	200 to 1000 nM	200 to 1000 nM	200 to 1000 nM
COc1cc2nccc(Oc3ccc(NC(=S)NC4CC4)c(Cl)c3)c2cc1C(=O)N1CCCC1 [Example 48]	200 to 1000 nM	200 to 1000 nM	50 to 200 nM
COc1cc2nccc(Oc3ccc(NC(=S)NC4CC4)c(Cl)c3)c2cc1C(=O)N1CCCCC1 [Example 49]	200 to 1000 nM	200 to 1000 nM	50 to 200 nM
COc1cc2nccc(Oc3ccc(NC(=S)N4CCN(C)CC4)c(Cl)c3)c2cc1C(N)=O [Example 51]	200 to 1000 nM	200 to 1000 nM	50 to 200 nM
COc1cc2nccc(Oc3ccc(NC(=S)NC(C)C)c(Cl)c3)c2cc1C(N)=O [Example 52]	< 50 nM	200 to 1000 nM	50 to 200 nM
COc1cc2nccc(Oc3ccc(NC(=S)NC4CC4)c(Cl)c3)c2cc1C(=O)N1CC(F)(F)C1 [Example 53]	200 to 1000 nM	200 to 1000 nM	50 to 200 nM
COc1cc2nccc(Oc3ccc(NC(=S)NC4CC4)c(Cl)c3)c2cc1C(=O)NC1CC1 [Example 54]	50 to 200 nM	200 to 1000 nM	200 to 1000 nM
COc1cc2nccc(Oc3ccc(NC(N)=S)c(Cl)c3)c2cc1C(N)=O [Example 57]	< 50 nM	200 to 1000 nM	50 to 200 nM
COc1cc2nccc(Oc3ccc(NC(=S)NC4CC=C(F)CC4)c(Cl)c3)c2cc1C(N)=O (stereo not drawn) [Example 60]	200 to 1000 nM	200 to 1000 nM	200 to 1000 nM
COc1cc2nccc(Oc3ccc(NC(=S)NC4CCC(F)(F)CC4)c(Cl)c3)c2cc1C(N)=O [Example 61]	200 to 1000 nM	200 to 1000 nM	50 to 200 nM
COCCNC(=O)c1cc2c(Oc3ccc(NC(=S)NC4CC4)c(Cl)c3)ccnc2cc1OC [Example 62]	50 to 200 nM	200 to 1000 nM	200 to 1000 nM
COc1cc2nccc(Oc3ccc(NC(=S)NCCCSC)c(Cl)c3)c2cc1C(N)=O [Example 63]	50 to 200 nM	200 to 1000 nM	< 50 nM
COc1cc2nccc(Oc3ccc(NC(=S)Nc4ccc(F)cc4)c(Cl)c3)c2cc1C(N)=O [Example 64]	50 to 200 nM	200 to 1000 nM	< 50 nM
COc1cc2nccc(Oc3ccc(NC(=S)Nc4ccccc4F)c(Cl)c3)c2cc1C(N)=O [Example 65]	50 to 200 nM	200 to 1000 nM	< 50 nM
COc1cc2nccc(Oc3ccc(NC(=S)N4CCC(F)(F)C4)c(Cl)c3)c2cc1C(N)=O [Example 66]	50 to 200 nM	200 to 1000 nM	200 to 1000 nM
COc1cc2nccc(Oc3ccc(NC(=S)N4CCC(F)(F)CC4)c(Cl)c3)c2cc1C(N)=O [Example 67]	50 to 200 nM	200 to 1000 nM	200 to 1000 nM
COc1cc2nccc(Oc3ccc(NC(=S)N4CCC4)c(Cl)c3)c2cc1C(N)=O [Example 68]	50 to 200 nM	50 to 200 nM	50 to 200 nM
